Data published in patent US20250188059A1, “NOVEL COMPOUND AND USE THEREOF FOR INHIBITING CHECKPOINT KINASE 2” (ARUM THERAPEUTICS INC, priority 2022, published 2025).
Read-outs that look alike come from different tables or passages of the source.

What was measured:
[1] = target: Chk2 kinase (Homo sapiens (Human), UniProt O96017); test: Chk2 kinase inhibitory activity (LanthaScreen TR-FRET); format: biochemical; details: graded
How it was run: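 Recombinant Chk1 or Chk2 was mixed with substrate and compound, and the reaction was started with ATP and run 1 h at room temperature. Phosphorylation was detected with a Tb-labelled anti-CREB pSer133 antibody for 30 min, read as the TR-FRET Em520/Em490 ratio. IC50 was fitted from duplicate-well means.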

[2] = Pharmacokinetics test using mice; format: in vivo; details: male, Balb/C, mouse, plasma; for Cmax: read-out: C0/Cmax; for Vd: iv, 1 mg/kg
Description: 6 to 8 week-old male Balb/C mice weighing 22-29 g were acclimatized for about 1 week, and then 12 mice for each group were divided into an intravenous administration group and an oral administration group and used in the experiment. The mice were fasted before administration of the compound and were allowed to drink water ad libitum. Feed was provided 2 hours after administration of the compound.
A preparation for intravenous injection (0.2 mg/mL) was prepared by dissolving 1.264 mg of the compound of Example 9 in 6.257 mL of DMSO: a mixed solution of solutol and ethanol (1:1): physiological saline (5:5:90% v/v). A preparation for oral administration (1 mg/mL) was prepared by suspending 5.916 mg of the compound of Example 9 in 5.857 mL of 0.5% methyl cellulose (0.5:99.5% v/v) containing 0.1 Tween 80.
The compound of Example 9 was administered at a dose of 1 mg/kg for intravenous administration and at a dose of 10 mg/kg for oral administration using an oral zonde.
In the case of intravenous administration, blood was collected at 5 minutes, 15 minutes, 30 minutes, 1 hour, 2 hours, 4 hours, 8 hours and 24 hours after administration of the compound. In the case of oral administration, blood was collected at 15 minutes, 30 minutes, 1 hour, 2 hours, 4 hours, 8 hours, 10 hours and 24 hours after administration of the compound. Plasma was separated from the collected blood, and the content of compounds in blood was measured by LC-MS/MS method, and PK parameters were calculated using Phoenix software ver.8.1.

[3] = tested on: human breast cancer cell line MCF-7; test: Cancer cell growth inhibition test (CellTiter-Glo); format: cell-based; details: Homo sapiens, MCF7, 72 h, MCF-7, 72 hours, graded; read-out: Celltiter glo analysis (IC50)
How it was run: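 MCF-7 cells (about 3000/well) pre-incubated 24 hours at 37° C, then exposed 72 hours to serially diluted compound, alone or combined with cisplatin or doxorubicin. Viability read by CellTiter-Glo luminescence as % of DMSO-only wells; values are means of three wells.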

Sequence of Chk2 kinase (O96017 whole entry): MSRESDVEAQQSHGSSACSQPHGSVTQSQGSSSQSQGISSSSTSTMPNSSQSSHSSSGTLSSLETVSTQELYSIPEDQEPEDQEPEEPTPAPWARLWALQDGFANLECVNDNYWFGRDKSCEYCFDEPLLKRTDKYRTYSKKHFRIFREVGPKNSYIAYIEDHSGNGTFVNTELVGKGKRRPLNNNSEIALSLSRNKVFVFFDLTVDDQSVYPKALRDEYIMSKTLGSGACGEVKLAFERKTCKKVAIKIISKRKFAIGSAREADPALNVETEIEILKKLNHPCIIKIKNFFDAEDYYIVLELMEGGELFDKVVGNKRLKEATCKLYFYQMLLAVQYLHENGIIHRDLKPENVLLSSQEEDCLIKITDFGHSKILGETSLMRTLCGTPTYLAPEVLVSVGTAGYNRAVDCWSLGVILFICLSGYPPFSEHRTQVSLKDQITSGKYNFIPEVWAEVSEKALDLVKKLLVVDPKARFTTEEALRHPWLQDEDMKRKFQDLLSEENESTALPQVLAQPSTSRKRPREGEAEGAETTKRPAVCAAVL

IC50 [1]: 0.01 to 0.1 µM
AUC(0-inf) ([2]; IV (1 mg/kg)): 298 ng·h/mL
AUC(0-t) ([2]; IV (1 mg/kg)): 267 ng·h/mL
clearance ([2]; IV (1 mg/kg)): 56.2 mL/min/kg
half-life ([2]; IV (1 mg/kg)): 1.36 h
Cmax ([2]; IV (1 mg/kg)): 231 ng/mL
bioavailability ([2]; PO 10 mg/kg vs IV 1 mg/kg, read-out: Oral bioavailability (% F)): 59%
AUC(0-inf) ([2]; PO (10 mg/kg)): 1770 ng·h/mL
AUC(0-t) ([2]; PO (10 mg/kg)): 1730 ng·h/mL
Tmax ([2]; PO (10 mg/kg)): 0.5 h
half-life ([2]; PO (10 mg/kg)): 1.92 h
Cmax ([2]; PO (10 mg/kg)): 749 ng/mL
Vd ([2]; IV (1 mg/kg), read-out: Vd): 6.59 L/kg
Vd ([2]; IV (1 mg/kg), read-out: Vss): 5.22 L/kg
IC50 [3]: 10 to 100 µM
SMILES: Nc1ncc(-c2cc(-c3cnn(CC(F)(F)F)c3)ccc2F)nc1C(=O)N[C@@H]1CNC[C@@H](F)C1 [Example 9, 3-amino-6-(2-fluoro-5-(1-(2,2,2-trifluoroethyl)-1H-pyrazol-4-yl)phenyl)-N-((3S,5S)-5-fluoropiperidin-3-yl) pyrazine-2-carboxamide]
